Test results published in patent US20230250088A1, “COMPOUNDS AND COMPOSITIONS FOR TREATING CONDITIONS ASSOCIATED WITH STING ACTIVITY” (IFM Due, Inc., priority 2020, published 2023).
Where “and” joins values, the source holds several entries; their conditions need not be identical. Equal values may be shown once. Read-outs that look alike come from different tables or passages of the source.

Molecular target: T1, hSTING (Homo sapiens, UniProt Q86WV6, G230A/H232R/R293Q/R71H)
T1 construct: host or cells: THP1-Dual KO-IFNAR2 cells
Assay: STING reporter assay (luciferase) in THP1-Dual KO-IFNAR2 cells activated with 2′3′cGAMP
Assay type: cell-based
Details: 2′3′cGAMP 15 μM final, Lipofectamine 2000, 24 h, luciferase reporter activity
Experimental: STING pathway activation by the compounds described herein was measured using THP1-Dual™ cells (KO-IFNAR2).
THP1-Dual™ KO-IFNAR2 Cells (obtained from invivogen) were maintained in RPMI, 10% FCS, 5 ml P/S, 2 mM L-glut, 10 mM Hepes, and 1 mM sodium pyruvate. Compounds were spotted in empty 384 well tissue culture plates (Greiner 781182) by Echo for a final concentration of 0.0017-100 μM. Cells were plated into the TC plates at 40 μL per well, 2×10E6 cells/mL. For activation with STING ligand, 2′3′cGAMP (MW 718.38, obtained from Invivogen), was prepared in Optimem media.
The following solutions were prepared for each 1×384 plate: • Solution A: 2 mL Optimem with one of the following stimuli: • 60 μL of 10 mM 2′3′cGAMP→150 μM stock • Solution B: 2 mL Optimem with 60 μL Lipofectamine 2000→Incubate 5 min at RT
2 mL of solution A and 2 ml Solution B was mixed and incubated for 20 min at room temperature (RT). 20 μL of transfection solution (A+B) was added on top of the plated cells, with a final 2′3′cGAMP concentration of 15 μM. The plates were then centrifuged immediately at 340 g for 1 minute, after which they were incubated at 37° C., 5% CO2, >98% humidity for 24h. Luciferase reporter activity was then measured. EC50 values were calculated by using standard methods known in the art.
Luciferase reporter assay: 10 μL of supernatant from the assay was transferred to white 384-plate with flat bottom and squared wells. One pouch of QUANTI-Luc™ Plus was dissolved in 25 mL of water. 100 μL of QLC Stabilizer per 25 mL of QUANTI-Luc™ Plus solution was added. 50 μL of QUANTI-Luc™ Plus/QLC solution per well was then added. Luminescence was measured on a Platereader (e.g., Spectramax I3X (Molecular Devices GF3637001)).
Luciferase reporter activity was then measured. EC50 values were calculated by using standard methods known in the art.

[1] = THP1-Dual KO-IFNAR2 cells, read-out: hSTING EC50
[2] = hSTING EC50, THP1-Dual KO-IFNAR2 cells

T1 sequence (Q86WV6 whole entry R71H/G230A/H232R/R293Q): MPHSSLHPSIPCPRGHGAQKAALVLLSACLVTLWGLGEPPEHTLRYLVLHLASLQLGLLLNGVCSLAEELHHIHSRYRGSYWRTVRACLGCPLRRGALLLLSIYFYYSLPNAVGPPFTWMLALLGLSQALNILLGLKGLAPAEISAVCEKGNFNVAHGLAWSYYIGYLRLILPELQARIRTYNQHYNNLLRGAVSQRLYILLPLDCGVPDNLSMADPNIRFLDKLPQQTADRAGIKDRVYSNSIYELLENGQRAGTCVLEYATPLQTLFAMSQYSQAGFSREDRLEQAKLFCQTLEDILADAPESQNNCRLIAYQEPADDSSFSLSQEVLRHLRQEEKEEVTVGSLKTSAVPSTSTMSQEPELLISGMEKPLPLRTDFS

## O=C(Nc1c[nH]c2cc(F)c(F)cc12)c1n[nH]c2c1CN(CC(F)(F)F)C2 [Compound 151]
[1]
  EC50: 5 to 100 µM

## O=C(Nc1c[nH]c2cc(F)c(F)cc12)C1Cc2[nH]nc(C(F)(F)F)c2C1 (stereo not shown) [Compound 115, N-(5,6-difluoro-1H-indol-3-yl)-3-(trifluoromethyl)-1H,4H,5H,6H-cyclopenta[c]pyrazole-5-carboxamide]
[1]
  EC50: 5 to 100 µM

## O=C(Nc1c[nH]c2cc(F)c(F)cc12)c1n[nH]c2cc(N3CCC(F)(F)CC3)ccc12 [Compound 155]
[1]
  EC50: 0.04 to 0.2 µM

## O=C(Nc1c[nH]c2cc(F)c(F)cc12)c1cc2ccc(Cl)cn2n1 [Compound 116, 6-chloro-N-(5,6-difluoro-1H-indol-3-yl)pyrazolo[1,5-a]pyridine-2-carboxamide]
[1]
  EC50: 0.2 to 1 µM

## CC(C)(C)OC(=O)N1CCn2nc(C(=O)Nc3c[nH]c4cc(F)c(F)cc34)cc2C1 [Compound 111, tert-butyl 2-[(5,6-difluoro-1H-indol-3-yl)carbamoyl]-4H,5H,6H,7H-pyrazolo[1,5-a]pyrazine-5-carboxylate]
[1]
  EC50: 1 to 5 µM

## O=C(Nc1c[nH]c2cc(F)c(F)cc12)c1c2ccccc2nn1Cc1ccc(C(F)(F)F)cc1 [Compound 101]
[1]
  EC50: 1 to 5 µM

## CC(C)(C)OC(=O)N1CCc2c(C(=O)Nc3c[nH]c4cc(F)c(F)cc34)ncn2CC1 [Compound 117, tert-butyl 1-[(5,6-difluoro-1H-indol-3-yl)carbamoyl]-5H,6H,7H,8H,9H-imidazo[1,5-d][1,4]diazepine-7-carboxylate]
[1]
  EC50: 5 to 100 µM

## O=C(Nc1c[nH]c2cc(F)c(F)cc12)c1cccc2c1cnn2Cc1ccc(C(F)(F)F)cc1 [Compound 122]
[1]
  EC50: 0.2 to 1 µM

## CC(C)(C)OC(=O)N1CCc2c(C(=O)Nc3c[nH]c4cc(F)c(F)cc34)csc2C1 [Compound 109, tert-butyl 3-((5,6-difluoro-1H-indol-3-yl)carbamoyl)-4.5-dihydrothieno[2,3-c]pyridine-6(7H)-carboxylate]
[1]
  EC50: 0.2 to 1 µM

## CC(C)(C)OC(=O)N1CCCn2nc(C(=O)Nc3c[nH]c4cc(F)c(F)cc34)cc2C1 [Compound 114, tert-butyl 2-[(5,6-difluoro-1H-indol-3-yl)carbamoyl]-4H,5H,6H,7H,8H-pyrazolo[1,5-a][1,4]diazepine-5-carboxylate]
[1]
  EC50: 5 to 100 µM

## CCC1Cc2ccc(C(=O)Nc3c[nH]c4cc(F)c(F)cc34)cc2C1 (stereo not shown) [Compound 123]
[1]
  EC50: 0.2 to 1 µM

## O=C(Nc1c[nH]c2cc(F)c(F)cc12)c1cccc2nn(CCC(F)(F)F)cc12 [Compound 137]
[1]
  EC50: 0.2 to 1 µM

## O=C(Nc1c[nH]c2cc(F)c(F)cc12)c1cn2cc(C(F)(F)F)ccc2n1 [Compound 113, N-(5,6-difluoro-1H-indol-3-yl)-6-(trifluoromethyl)imidazo[1,2-a]pyridine-2-carboxamide]
[1]
  EC50: 1 to 5 µM

## O=C(Nc1c[nH]c2cc(F)c(F)cc12)c1cc2cccnc2s1 [Compound 112, N-(5,6-difluoro-1H-indol-3-yl)thieno[2,3-b]pyridine-2-carboxamide]
[1]
  EC50: 1 to 5 µM

## O=C(Nc1c[nH]c2cc(F)c(F)cc12)c1cccc2nn(Cc3ccc(C(F)(F)F)cc3)cc12 [Compound 121]
[1]
  EC50: 0.2 to 1 µM

## O=C(Nc1c[nH]c2ccc(Cl)cc12)c1n[nH]c2cc(N3CCC(F)(F)CC3)ccc12 [Compound 146]
[1]
  EC50: 0.04 to 0.2 µM

## CC(C)(C)OC(=O)N1Cc2n[nH]c(C(=O)Nc3c[nH]c4cc(F)c(F)cc34)c2C1 [Compound 110, tert-butyl 3-((5,6-difluoro-1H-indol-3-yl)carbamoyl)-4,6-dihydropyrrolo[3,4-c]pyrazole-5(1H)-carboxylate]
[1]
  EC50: 1 to 5 µM

## O=C(Nc1c[nH]c2cc(F)c(F)cc12)c1cnc2cc(OCC(F)(F)F)ccn12 [Compound 150]
[1]
  EC50: 0.04 to 0.2 µM

## O=C(Nc1c[nH]c2cc(F)c(F)cc12)c1n[nH]c2nc(N3CCC(F)(F)CC3)c(Cl)cc12 [Compound 152]
[1]
  EC50: 0.2 to 1 µM

## O=C(Nc1c[nH]c2cc(F)c(F)cc12)c1nn(Cc2ccc(C(F)(F)F)cc2)c2ccccc12 [Compound 106, N-(5,6-difluoro-1H-indol-3-yl)-1-[[4-(trifluoromethyl)phenyl]methyl]indazole-3-carboxamide]
[2]
  EC50: 0.2 to 1 µM

## O=C(Nc1c[nH]c2ccc(Cl)cc12)c1n[nH]c2c1CN(Cc1ccc(C(F)(F)F)cc1)C2 [Compound 142, N-(5-chloro-1H-indol-3-yl)-5-(4-(trifluoromethyl)benzyl)-1,4,5,6-tetrahydropyrrolo[3,4-c]pyrazole-3-carboxamide]
[1]
  EC50: 0.2 to 1 µM

## O=C(Nc1c[nH]c2cc(F)c(F)cc12)c1ccc2c(c1)OCCCO2 [Compound 124, N-(5,6-difluoro-1H-indol-3-yl)-3,4-dihydro-2H-benzo[b][1,4]dioxepine-7-carboxamide]
[1]
  EC50: 0.2 to 1 µM

## O=C(Nc1c[nH]c2cc(F)c(F)cc12)c1cnc2cc(C(F)(F)F)ccn12 [Compound 105]
[1]
  EC50: 1 to 5 µM

## O=C(Nc1c[nH]c2ccccc12)c1n[nH]c2cc(OCC(F)(F)F)ccc12 [Compound 148, N-(1H-indol-3-yl)-6-(2,2,2-trifluoroethoxy)-1H-indazole-3-carboxamide]
[1]
  EC50: 0.04 to 0.2 µM

## O=C(Nc1c[nH]c2ccc(Cl)cc12)c1n[nH]c2cc(OCC(F)(F)F)ccc12 [Compound 149]
[1]
  EC50: 0.04 to 0.2 µM

## O=C(Nc1c[nH]c2cc(F)c(F)cc12)c1n[nH]c2nc(OCC(F)(F)F)ccc12 [Compound 129]
[1]
  EC50: 0.2 to 1 µM

## O=C(Nc1c[nH]c2cc(F)c(F)cc12)c1cn2c(n1)CCC(C(F)(F)F)C2 (stereo not shown) [Compound 120, N-(5,6-difluoro-1H-indol-3-yl)-6-(trifluoromethyl)-5,6,7,8-tetrahydroimidazo[1,2-a]pyridine-2-carboxamide]
[1]
  EC50: 5 to 100 µM

## O=C(Nc1c[nH]c2ccc(Cl)cc12)c1n[nH]c2cc(N3CCN(CC(F)(F)F)CC3)ccc12 [Compound 144]
[1]
  EC50: 0.04 to 0.2 µM

## O=C(Nc1c[nH]c2cc(F)c(F)cc12)c1n[nH]c2cc(OC(F)(F)F)ccc12 [Compound 118]
[1]
  EC50: 0.2 to 1 µM

## O=C(Nc1c[nH]c2ccc(Cl)cc12)c1n[nH]c2cc(N3CCC(F)(F)CC3)ncc12 [Compound 143, N-(5-chloro-1H-indol-3-yl)-6-(4,4-difluoropiperidin-1-yl)-1H-pyrazolo[4,3-c]pyridine-3-carboxamide]
[1]
  EC50: 5 to 100 µM

## O=C(Nc1c[nH]c2cc(F)c(F)cc12)c1cccc2c1cnn2CCC(F)(F)F [Compound 138]
[1]
  EC50: 1 to 5 µM

## Cn1nc2cc(C(F)(F)F)ccc2c1C(=O)Nc1c[nH]c2cc(F)c(F)cc12 [Compound 157]
[1]
  EC50: 5 to 100 µM

## Cn1nc(C(=O)Nc2c[nH]c3cc(F)c(F)cc23)c2ccc(C(F)(F)F)cc21 [Compound 158]
[1]
  EC50: 0.2 to 1 µM

## O=C(Nc1c[nH]c2cc(F)c(F)cc12)c1c2ccccc2nn1CCC(F)(F)F [Compound 102]
[1]
  EC50: 5 to 100 µM

## O=C(Nc1c[nH]c2cc(F)c(F)cc12)c1n[nH]c2cc(NCC(F)(F)F)ccc12 [Compound 126]
[1]
  EC50: 0.04 to 0.2 µM and 0.2 to 1 µM

## O=C(Nc1c[nH]c2ccc(Cl)cc12)c1noc2cc(N3CCC(F)(F)CC3)ccc12 [Compound 147]
[1]
  EC50: 0.04 to 0.2 µM

## Cc1nc(C(=O)Nc2c[nH]c3cc(F)c(F)cc23)c2ccc(C(F)(F)F)cn12 [Compound 134]
[1]
  EC50: 5 to 100 µM

## O=C(Nc1c[nH]c2cc(F)c(F)cc12)c1n[nH]c2nc(N3CCC(F)(F)CC3)ccc12 [Compound 154]
[1]
  EC50: 0.2 to 1 µM

## Cc1ccc2c(C(=O)Nc3c[nH]c4cc(F)c(F)cc34)cnn2c1 [Compound 104]
[1]
  EC50: 0.2 to 1 µM

## O=C(Nc1c[nH]c2cc(F)c(F)cc12)c1n[nH]c2cc(OCC(F)(F)F)ncc12 [Compound 128]
[1]
  EC50: 0.2 to 1 µM

## O=C(Nc1c[nH]c2cc(F)c(F)cc12)c1nn(CCC(F)(F)F)c2ccccc12 [Compound 103]
[2]
  EC50: 0.2 to 1 µM

## CC1(C)CCc2c(C(=O)Nc3c[nH]c4cc(F)c(F)cc34)n[nH]c2C1 [Compound 156]
[1]
  EC50: 1 to 5 µM

## O=C(Nc1c[nH]c2cc(F)c(F)cc12)c1n[nH]c2cc(OCC(F)(F)F)ccc12 [Compound 125]
[1]
  EC50: 0.04 to 0.2 µM
